Source: patent US11524966B1 (Valo Early Discovery, Inc., priority 2017, dated 2022)

Target: T1, USP28 (USP28-5(1-1077)-TEV-6*His; LifeSensors) (Homo sapiens, UniProt Q96RU2)
T1 construct: construct USP28 (USP28-5(1-1077)-TEV-6*His; LifeSensors); TEV cleavage site (C); 6xHis (C); purchased LifeSensors
T1 sequence (Q96RU2 1-1077): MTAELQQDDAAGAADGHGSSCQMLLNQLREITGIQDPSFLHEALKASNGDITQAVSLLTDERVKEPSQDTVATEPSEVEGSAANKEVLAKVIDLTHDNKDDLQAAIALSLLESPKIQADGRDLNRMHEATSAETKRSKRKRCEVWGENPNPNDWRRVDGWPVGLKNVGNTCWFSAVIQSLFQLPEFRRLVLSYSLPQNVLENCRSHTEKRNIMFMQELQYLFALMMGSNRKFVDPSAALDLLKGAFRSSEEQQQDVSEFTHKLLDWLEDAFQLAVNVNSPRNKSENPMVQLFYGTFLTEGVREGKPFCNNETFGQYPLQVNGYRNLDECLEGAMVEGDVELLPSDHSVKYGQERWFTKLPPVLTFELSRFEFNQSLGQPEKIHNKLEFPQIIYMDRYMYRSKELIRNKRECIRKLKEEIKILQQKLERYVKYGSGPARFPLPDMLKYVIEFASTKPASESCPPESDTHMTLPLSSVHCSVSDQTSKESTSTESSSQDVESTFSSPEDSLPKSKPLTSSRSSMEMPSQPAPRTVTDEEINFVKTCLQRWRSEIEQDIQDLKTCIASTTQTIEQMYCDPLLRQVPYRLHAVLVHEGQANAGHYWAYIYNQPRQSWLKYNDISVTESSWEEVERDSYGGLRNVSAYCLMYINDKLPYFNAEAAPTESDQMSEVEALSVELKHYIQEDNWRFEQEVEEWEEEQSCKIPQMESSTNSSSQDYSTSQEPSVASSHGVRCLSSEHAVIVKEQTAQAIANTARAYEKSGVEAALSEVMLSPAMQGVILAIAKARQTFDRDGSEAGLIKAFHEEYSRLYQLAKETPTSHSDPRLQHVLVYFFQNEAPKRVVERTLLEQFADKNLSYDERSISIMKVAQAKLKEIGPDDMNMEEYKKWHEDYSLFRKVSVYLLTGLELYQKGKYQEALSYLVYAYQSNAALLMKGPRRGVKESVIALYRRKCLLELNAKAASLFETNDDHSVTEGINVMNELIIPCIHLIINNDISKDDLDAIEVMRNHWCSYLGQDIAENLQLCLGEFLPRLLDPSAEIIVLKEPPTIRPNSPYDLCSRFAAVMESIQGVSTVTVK
Experiment: Ubiquitin-Rhodamine 110 Assay for USP28 Activity, Example A-1(b)
Format: biochemical
Details: Ub-Rh110 assay, Example A-1(b)
In short: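 Single-point screening used 10 μM compound with 90 min room-temperature incubation; follow-up dose-responses (25 μM top, 3-fold) used 75 pM USP28 1-1077 construct, 30 min compound preincubation, 25 nM Ub-Rh110, 20 min reaction, citric acid quench. Rh110 fluorescence normalised to no-enzyme and DMSO controls; IC50 from 4-parameter logistic fit.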

| SMILES | USP28 A-1(b) IC50 range |
| --- | --- |
| Cc1cc(C)c2c(N)c(C(=O)N[C@H]3COc4cc(N5CC6CC(C5)N6)ccc4C3)sc2n1 [Example 2-18, N-((3R)-7-(3,6-diazabicyclo[3.1.1]heptan-3-yl)chroman-3-yl)-3-amino-4,6-dimethylthieno[2,3-b]pyridine-2-carboxamide] | +++ (0.05-0.2 μM) |
| Cc1cc(C)c2c(N)c(C(=O)N[C@H]3COc4cc(N5CC6CNCC(C5)C6(F)F)ccc4C3)sc2n1 [Example 2-19, 3-amino-N-((3R)-7-(9,9-difluoro-3,7-diazabicyclo[3.3.1]nonan-3-yl)chroman-3-yl)-4,6-dimethylthieno[2,3-b]pyridine-2-carboxamide] | ++++ (0.001-0.05 μM) |
| Cc1cc(C)c2c(N)c(C(=O)N[C@H]3COc4cc(N5CC6CNCC(C5)O6)ccc4C3)sc2n1 [Example 2-20, N-((3R)-7-(9-oxa-3,7-diazabicyclo[3.3.1]nonan-3-yl)chroman-3-yl)-3-amino-4,6-dimethylthieno[2,3-b]pyridine-2-carboxamide] | +++ (0.05-0.2 μM) |
| Cc1cc(C(F)(F)F)c2c(N)c(C(=O)N[C@H]3COc4cc(N5CC6CC(C5)N6)ccc4C3)sc2n1 [Example 2-21] | ++ (0.2-2 μM) |
| Cc1cc(C(F)(F)F)c2c(N)c(C(=O)N[C@H]3COc4cc(N5CC6CNCC(C5)C6(F)F)ccc4C3)sc2n1 [Example 2-22, 3-amino-N-((3R)-7-(9,9-difluoro-3,7-diazabicyclo[3.3.1]nonan-3-yl)chroman-3-yl)-6-methyl-4-(trifluoromethyl)thieno[2,3-b]pyridine-2-carboxamide] | ++++ (0.001-0.05 μM) |
| O=C(N[C@H]1COc2cc(N3CC4CCC(C3)N4)ccc2C1)c1cnc2c(c1)C1(CCN2)CC1 [Example 2-24, N-((3R)-7-(3,8-diazabicyclo[3.2.1]octan-3-yl)chroman-3-yl)-2′,3′-dihydro-1′H-spiro[cyclopropane-1,4′-[1,8]naphthyridine]-6′-carboxamide] | + (>2 μM) |
| O=C(N[C@H]1COc2cc(N3CC4CCC(C3)N4)ccc2C1)c1ccc(NCc2ccccc2)nc1 [Example 2-25, N-((3R)-7-(3,8-diazabicyclo[3.2.1]octan-3-yl)chroman-3-yl)-6-(benzylamino)nicotinamide] | ++ (0.2-2 μM) |
| Cc1nc2sc(C(=O)N[C@H]3COc4cc(N5CC6CC(C5)N6)ccc4C3)c(N)c2s1 [Example 2-26, N-((3R)-7-(3,6-diazabicyclo[3.1.1]heptan-3-yl)chroman-3-yl)-6-amino-2-methylthieno[2,3-d]thiazole-5-carboxamide] | ++ (0.2-2 μM) |
| Cc1nc2sc(C(=O)N[C@H]3COc4cc(N5CC6CCCC(C5)N6)ccc4C3)c(N)c2s1 [Example 2-27] | ++ (0.2-2 μM) |
| Cc1nc2sc(C(=O)N[C@H]3COc4cc(N5CC6CNCC(C5)C6(F)F)ccc4C3)c(N)c2s1 [Example 2-28, 6-amino-N-((3R)-7-(9,9-difluoro-3,7-diazabicyclo[3.3.1]nonan-3-yl)chroman-3-yl)-2-methylthieno[2,3-d]thiazole-5-carboxamide] | +++ (0.05-0.2 μM) |
| CCn1ccc2cc(C(=O)N[C@H]3COc4cc(N5CC6CCCC(C5)N6)ccc4C3)nnc21 [Example 2-29, N-((3R)-7-(3,9-diazabicyclo[3.3.1]nonan-3-yl)chroman-3-yl)-7-ethyl-7H-pyrrolo[2,3-c]pyridazine-3-carboxamide] | ++ (0.2-2 μM) |
| CCn1ccc2cc(C(=O)N[C@H]3COc4cc(N5CC6CNCC(C5)C6(F)F)ccc4C3)cnc21 [Example 2-30, N-((3R)-7-(9,9-difluoro-3,7-diazabicyclo[3.3.1]nonan-3-yl)chroman-3-yl)-1-ethyl-1H-pyrrolo[2,3-b]pyridine-5-carboxamide] | ++++ (0.001-0.05 μM) |
| Cc1ccc2c(N)c(C(=O)N[C@H]3COc4cc(N5CC6CNCC(C5)C6(F)F)c(C#N)cc4C3)sc2n1 [Example 2-33, 3-amino-N-((3R)-6-cyano-7-(9,9-difluoro-3,7-diazabicyclo[3.3.1]nonan-3-yl)chroman-3-yl)-6-methylthieno[2,3-b]pyridine-2-carboxamide] | ++++ (0.001-0.05 μM) |
